Reference: patent US6194450A, “Polyaromatic heterocyclic compounds and pharmaceutical compositions comprised thereof” (Centre International de Recherches Dermatologiques Galderma, priority 1995, dated 2001)

Legend:
[1] = tested on: mouse embryonic teratocarcinoma F9 cells; assay: Differentiation of mouse embryonic teratocarcinoma F9 cells (plasminogen activator secretion); format: cell-based; details: concentration producing half of the maximum amount of plasminogen activator secreted
Excerpt: Their activities may also be measured in tests of cell transactivation using pretransfected recombinant RAR or RXR receptors (B. A. Bernard et al, Biochemical and Biophysical Research Communication, vol. 186, 977-983 (1992); M. F. Boehm et al, Journal of Medicinal Chemistry, 37, 408-414 (1994)).
This differentiation was characterized by the secretion of the plasminogen activator into the culture medium. The activity of the compound is expressed by the AC50 value, which represents the concentration of test compound which produces half of the maximum amount of plasminogen activator secreted.

RARγ = biological target: T1, RARγ (Homo sapiens, UniProt P13631); assay: RAR Transactivation, RARγ (HeLa cells cotransfected with human RAR expression vector and TREpp-tk-CAT reporter); format: cell-based; details: concentration eliciting 50% of the maximum CAT activity
T1 construct: expressed in transfected cells; host or cells: HeLa
T1 sequence (P13631 1-454): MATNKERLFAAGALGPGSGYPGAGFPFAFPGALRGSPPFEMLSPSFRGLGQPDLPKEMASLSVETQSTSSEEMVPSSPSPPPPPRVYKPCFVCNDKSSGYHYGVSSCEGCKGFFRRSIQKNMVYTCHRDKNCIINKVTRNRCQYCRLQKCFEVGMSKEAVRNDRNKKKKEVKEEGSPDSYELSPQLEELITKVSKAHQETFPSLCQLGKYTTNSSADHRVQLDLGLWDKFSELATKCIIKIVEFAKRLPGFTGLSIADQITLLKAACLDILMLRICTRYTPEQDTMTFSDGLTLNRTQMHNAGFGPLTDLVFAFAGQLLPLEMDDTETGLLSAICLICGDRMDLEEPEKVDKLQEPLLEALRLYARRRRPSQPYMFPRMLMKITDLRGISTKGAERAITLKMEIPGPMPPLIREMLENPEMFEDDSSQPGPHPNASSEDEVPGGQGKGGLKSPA
Procedure: (§1) (b) This test was carried out as described in the publication: Bernard B. A., Bernardon J. M., Delescluse C., Martin C., Lenoir M. C., Maignan J., Carpentier B., Pilgrim W. R., Reichert U. and Shroot B., Biochem. Biophys. […] HeLa cells were cotransfected with expression vectors coding for human RARs and the reporter plasmid TREpp-tk-CAT. The value given represents the concentration of test compound which elicited 50% of the maximum CAT activity.

RARβ [2] = biological target: T2, RARβ (Homo sapiens, UniProt P10826); assay: RAR binding, RARβ (competition binding, nuclear extracts of transfected cos-7 cells); set-up: expressed in transfected cells; host or cells: COS-7 (nuclear extracts); details: recombinant human receptors, cos-7 nuclear extracts; competition with [H^3]-4-(5,6,7,8-tetrahydro-5,5,8,8-tetramethyl-2-anthracenyl benzoic acid)
T2 sequence (P10826 1-448 isoform P10826-2): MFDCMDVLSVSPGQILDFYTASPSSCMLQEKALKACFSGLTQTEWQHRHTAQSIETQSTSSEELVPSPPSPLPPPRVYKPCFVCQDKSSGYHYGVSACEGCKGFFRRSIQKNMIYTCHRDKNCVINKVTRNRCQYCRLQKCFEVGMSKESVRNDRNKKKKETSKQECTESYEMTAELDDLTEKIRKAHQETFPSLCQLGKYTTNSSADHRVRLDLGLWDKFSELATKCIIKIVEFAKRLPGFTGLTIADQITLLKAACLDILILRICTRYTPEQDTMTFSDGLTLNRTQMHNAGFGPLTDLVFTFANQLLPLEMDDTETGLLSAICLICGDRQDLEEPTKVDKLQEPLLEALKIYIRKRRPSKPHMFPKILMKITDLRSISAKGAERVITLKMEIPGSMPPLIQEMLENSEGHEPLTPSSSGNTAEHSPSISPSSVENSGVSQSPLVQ
Procedure: (c) The binding test was carried out on recombinant human receptors produced by the transfection of cos-7 cells with expression vectors coding for the RAR receptor subtypes.

RARβ [3] = biological target: T2, RARβ; assay: RAR Transactivation, RARβ (HeLa cells cotransfected with human RAR expression vector and TREpp-tk-CAT reporter); format: cell-based; set-up: expressed in transfected cells; details: concentration eliciting 50% of the maximum CAT activity
Procedure: as §1

RARα = biological target: T3, RARα (Homo sapiens, UniProt P10276); assay: RAR Transactivation, RARα (HeLa cells cotransfected with human RAR expression vector and TREpp-tk-CAT reporter); format: cell-based; details: concentration eliciting 50% of the maximum CAT activity
T3 construct: expressed in transfected cells
T3 sequence (P10276 1-462): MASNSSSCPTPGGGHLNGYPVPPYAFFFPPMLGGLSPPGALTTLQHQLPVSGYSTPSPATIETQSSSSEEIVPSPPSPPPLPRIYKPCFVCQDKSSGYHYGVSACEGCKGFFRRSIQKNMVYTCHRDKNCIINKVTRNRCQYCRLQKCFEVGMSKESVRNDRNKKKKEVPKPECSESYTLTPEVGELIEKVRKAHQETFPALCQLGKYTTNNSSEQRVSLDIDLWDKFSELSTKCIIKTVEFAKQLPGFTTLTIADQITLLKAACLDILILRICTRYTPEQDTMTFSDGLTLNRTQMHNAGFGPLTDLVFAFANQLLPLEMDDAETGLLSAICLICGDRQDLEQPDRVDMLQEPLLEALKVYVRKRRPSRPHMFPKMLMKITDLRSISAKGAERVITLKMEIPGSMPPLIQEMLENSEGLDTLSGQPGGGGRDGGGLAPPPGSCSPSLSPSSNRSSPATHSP
Procedure: as §1

| SMILES | AC50 [1] [nM] | AC50 (RARγ) [nM] | Kd (RARβ [2]) [nM] | AC50 (RARβ [3]) [nM] | AC50 (RARα) [nM] |
| --- | --- | --- | --- | --- | --- |
| CC(C)(C)c1cc(C2=Cc3ccc(C(=O)O)cc3OC2)cc(C(C)(C)C)c1O [Example 11, 3-[(3,5-di-tert-butyl-4-hydroxyphenyl)-2-H-1-benzopyran]-7-carboxylic acid] | 320 | 157 | 3680 | 77 |  |
| O=C(O)c1ccc2c(c1)OCC(c1ccc(O)c(C34CC5CC(CC(C5)C3)C4)c1)=C2 [Example 13, 3-[(3-(1-adamantyl)-4-hydroxphenyl)-2H-1-benzopyran]-7-carboxylic acid] | 107 | 6 | 3300 | 20 | 47 |
| COc1ccc(C2=Cc3ccc(C(=O)O)cc3OC2)cc1C12CC3CC(CC(C3)C1)C2 [Example 1, 3-[(3-(1-adamantyl)-4-methoxyphenyl)-2H-1-benzopyran]-7-carboxylic acid] |  | 4 |  | 2 | 8 |
| CC1(C)CCC(C)(C)c2cc(C3=Cc4ccc(C(=O)O)cc4OC3)ccc21 [Example 2, 3-[(5,6,7,8-tetrahydro-5,5,8,8-tetramethyl-2-naphthyl)-2-H-1-benzopyran]-7-carboxylic acid] | 58 | 15 |  | 2 | 22 |
